Laboratory results reported in the supplement of paper PMC5579334.
± gives the standard deviation of the averaged measurements.

How the values were obtained:
HS-PSS [1] = assay: drug sensitivity score (DSS, CellTiter-Glo viability, 72 h) (DSS (dimensionless)); higher = more sensitive; extreme values may be limits of the assay
Outline: (§1)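 MPNST cell lines and primary human Schwann cells were seeded at 750–1000 cells per well into 384-well plates preprinted with each compound at five concentrations in 10-fold steps, then incubated 72 h at 37 °C, 5% CO2. CellTiter-Glo ATP luminescence gave viability, scaled between vehicle and positive-control wells, with duplicates averaged where present. Curves were fitted with a four-parameter logistic model. Percent inhibition refers to the top concentration, while drug sensitivity score and relative IC50, censored at the top concentration, come from these fits.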

HS-Sch-2 [2] = assay: as above
Outline: as §1

[3] = test system: HSC1 (primary human Schwann cells); assay: as above
Outline: as §1

[4] = test system: HSC2 (primary human Schwann cells); assay: as above
Outline: as §1

S1507-2 [5] = assay: as above
Outline: as §1

S462 [6] = assay: as above
Outline: as §1

ST8814 [7] = assay: as above
Outline: as §1

STS26T [8] = assay: as above
Outline: as §1

YST-1 [9] = assay: as above
Outline: as §1

HS-PSS [10] = assay: drug sensitivity score (DSS, CellTox-Green cytotoxicity, 72 h) (DSS (dimensionless)); higher = more cytotoxic; extreme values may be limits of the assay
Outline: (§2)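 For 72 h at 37 °C, MPNST cell lines and primary human Schwann cells were exposed in 384-well plates to five 10-fold compound dilutions. CellTox-Green, added before seeding at a final 1:1000 dilution, gave fluorescence from DNA released by disrupted cells. Signals were scaled to vehicle and positive-control wells, cultures failing plate quality control were left out, and four-parameter logistic fits were applied. Relative IC50 and drug sensitivity score were derived from the fits, with IC50 censored at the top concentration.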

[11] = test system: HSC1 (primary human Schwann cells); assay: as above
Outline: as §2

[12] = test system: HSC2 (primary human Schwann cells); assay: as above
Outline: as §2

S1507-2 [13] = assay: as above
Outline: as §2

ST8814 [14] = assay: as above
Outline: as §2

STS26T [15] = assay: as above
Outline: as §2

HS-PSS [16] = assay: % inhibition of CellTiter-Glo viability at highest tested concentration (72 h), relative to DMSO and benzethonium chloride controls; higher = more inhibition
Outline: as §1

HS-Sch-2 [17] = assay: as above
Outline: as §1

[18] = test system: HSC1 (primary human Schwann cells); assay: as above
Outline: as §1

[19] = test system: HSC2 (primary human Schwann cells); assay: as above
Outline: as §1

S1507-2 [20] = assay: as above
Outline: as §1

S462 [21] = assay: as above
Outline: as §1

ST8814 [22] = assay: as above
Outline: as §1

STS26T [23] = assay: as above
Outline: as §1

YST-1 [24] = assay: as above
Outline: as §1

SMILES	drug sensitivity score (HS-PSS [1])	drug sensitivity score (HS-Sch-2 [2])	drug sensitivity score [3]	drug sensitivity score [4]	drug sensitivity score (S1507-2 [5])	drug sensitivity score (S462 [6])	drug sensitivity score (ST8814 [7])	drug sensitivity score (STS26T [8])	drug sensitivity score (YST-1 [9])	drug sensitivity score (HS-PSS [10])	drug sensitivity score [11]	drug sensitivity score [12]	drug sensitivity score (S1507-2 [13])	drug sensitivity score (ST8814 [14])	drug sensitivity score (STS26T [15])	% inhibition (HS-PSS [16])	% inhibition (HS-Sch-2 [17])	% inhibition [18]	% inhibition [19]	% inhibition (S1507-2 [20])	% inhibition (S462 [21])	% inhibition (ST8814 [22])	% inhibition (STS26T [23])	% inhibition (YST-1 [24])
Cc1c(N)nc([C@H](CC(N)=O)NC[C@H](N)C(N)=O)nc1C(=O)N[C@H](C(=O)N[C@H](C)[C@@H](O)[C@H](C)C(=O)N[C@H](C(=O)NCCc1nc(-c2nc(C(=O)NCCC[S+](C)C)cs2)cs1)[C@@H](C)O)[C@@H](O[C@@H]1O[C@@H](CO)[C@@H](O)[C@H](O)[C@@H]1O[C@H]1O[C@H](CO)[C@@H](O)[C@H](OC(N)=O)[C@@H]1O)c1c[nH]cn1 [Bleomycin] (max concentration tested 10000 nM)	5.94	8.47	6.33	8.81	2.36 ± 0.43	5 ± 1.1	4.1	5.46	10.9	0.34	0	1.66	1.29 ± 0.61	2.35	4.43	53.2%	72.1%	50.4%	54.5%	29.9 ± 7.5%	68.4 ± 1.7%	46.4%	62.1%	79.5%
CC(C)C[C@H](NC(=O)[C@H](Cc1ccccc1)NC(=O)c1cnccn1)B(O)O [Bortezomib] (max concentration tested 1000 nM)	14.4	30	25.6	25.7	24.458 ± 0.016	27.4 ± 0.87	26.3	23.7	24.2	7.75	19.8	20.1	30.1 ± 4.9	24.3	23.5	93.5%	101%	101%	102%	103.6 ± 0.17%	102.5 ± 0.77%	103%	102%	100%
COc1cc(Nc2c(C#N)cnc3cc(OCCCN4CCN(C)CC4)c(OC)cc23)c(Cl)cc1Cl [Bosutinib] (max concentration tested 10000 nM)	5.17	9.19	7.12	9.52	9.52 ± 0.072	9.09 ± 1.4	9.35	9.81	6.63	5.37	1.14	3.59	6.25 ± 1.3	7.01	5.46	99.8%	100%	80%	86%	96.4 ± 2%	94.85 ± 0.58%	96.5%	95.4%	100%
Cc1cc2c(F)c(Oc3ncnn4cc(OC[C@@H](C)O)c(C)c34)ccc2[nH]1 [Brivanib] (max concentration tested 1000 nM)	0	0	0	0	0	0	0	0	0	0	0	0	0	0	0	-3.58%	-0.92%	-5.58%	-0.326%	-1.44 ± 10%	3.36 ± 7.5%	-1.65%	4.35%	0.09%
CCC/C=C/C=C/C(=O)O[C@H]1/C(=C/C(=O)OC)C[C@H]2C[C@H]([C@@H](C)O)OC(=O)C[C@H](O)C[C@@H]3C[C@H](OC(C)=O)C(C)(C)[C@](O)(C[C@@H]4C/C(=C/C(=O)OC)C[C@H](/C=C/C(C)(C)[C@]1(O)O2)O4)O3 [Bryostatin 1] (max concentration tested 100 nM)	1.21	7.06	0	0	0.762 ± 1.1	1.37 ± 0.77	0	2.82	0	0	0	0	2.29 ± 3.2	0	0	11.2%	19.4%	-11.5%	-14.2%	21.1 ± 2.6%	24.9 ± 3.1%	-11.8%	20.4%	7.32%
Nc1cc(C(F)(F)F)c(-c2cc(N3CCOCC3)nc(N3CCOCC3)n2)cn1 [Buparlisib] (max concentration tested 10000 nM)	6.19	8.73	6.85	7.01	8.72 ± 0.83	8.35 ± 0.34	8.12	9.07	12.1	0	5.07	7.46	5.23 ± 2.9	4.69	8.28	70.9%	95.2%	85.1%	88.1%	88.421 ± 0.034%	97.02 ± 0.16%	90.9%	96.8%	95.3%
CS(=O)(=O)OCCCCOS(C)(=O)=O [Busulfan] (max concentration tested 100000 nM)	0	0.72	0	0	0	0	0	0	2.32	0	0	0	0	0	0	0.44%	17.2%	8.68%	-3.16%	-7.23 ± 18%	-16.5 ± 19%	0.917%	3.36%	22.8%
CC1=NN(c2ccc(C(=O)O)cc2)C(=O)C1=Cc1ccc(-c2cc(C)c(C)cc2[N+](=O)[O-])o1 [C646] (max concentration tested 25000 nM)	0.34	0	0	0	0.311 ± 0.44	0.301 ± 0.43	0	0	0.68	0	0	1.71	2.69 ± 3.8	0	0	17.2%	-1.27%	-3.92%	-4.28%	9.84 ± 4.1%	1.13 ± 8.9%	3.46%	1.97%	19.6%
O=C(O)CCCCC(CCSCc1ccccc1)SCc1ccccc1 (configuration not stated) [CPI-613] (max concentration tested 10000 nM)	0.36	0	0	0	0	0	0	0	0.06	0	0	0	0.502 ± 0.71	0	0	17%	-6.28%	-3.11%	-1.05%	-8.09 ± 10%	-9.93 ± 9.6%	0.691%	-2.54%	14.3%
C#Cc1cccc(Nc2ncnc3cc(OC)c(OCCCCCCC(=O)NO)cc23)c1 [CUDC-101] (max concentration tested 10000 nM)	12.6	15.7	15.8	15	11.9 ± 0.6	13.3 ± 1.8	12.3	8.5	20.8	6.98	11	11.8	9.97 ± 2.9	9.2	6	95%	101%	102%	102%	103 ± 1.6%	102.2 ± 0.43%	102%	100%	99.1%
COc1cc2nccc(Oc3ccc(NC(=O)C4(C(=O)Nc5ccc(F)cc5)CC4)cc3)c2cc1OC [Cabozantinib] (max concentration tested 1000 nM)	1.89	0.13	0.225	0	4.78 ± 0.14	0.552 ± 0.78	2.2	0.238	0	0	0	0	0	0	0	23%	10.9%	13.2%	8.9%	27.7 ± 7.5%	14 ± 4.9%	21.3%	13.4%	0.14%
C=CC(=O)Nc1cc2c(Nc3ccc(F)c(Cl)c3)ncnc2cc1OCCCN1CCOCC1 [Canertinib] (max concentration tested 10000 nM)	6.16	6.37	8.87	7.63	7.98 ± 0.98	6.03 ± 1	8.06	7.19	5.36	3.38	7.58	8	5.1 ± 0.58	4.72	4.76	88.7%	94.2%	96.6%	96.2%	87.9 ± 0.97%	96.1 ± 0.97%	96.3%	96.5%	96.3%
CCCCCOC(=O)Nc1nc(=O)n([C@@H]2O[C@H](C)[C@@H](O)[C@H]2O)cc1F [Capecitabine] (max concentration tested 10000 nM)	0	0	0	0	0	0	0	0.0023	0	0	0	0	0	0	0	-4.86%	-4.92%	1.09%	-3.4%	5.66 ± 1.9%	-4.78 ± 2.1%	-8.14%	12%	-6.84%
